# Results taken from patent US12239636B2, “Combined sirolimus and nintedanib therapy for vascular lesions and hereditary hemorrhagic telangiectasia” (THE FEINSTEIN INSTITUTES FOR MEDICAL RESEARCH, priority 2018, dated 2025).
# Like-named read-outs stand apart in the source and are kept apart here.
# What was measured:
# [1] = LC-MS serum drug concentrations in injected pups
# neonatal retina = experiment: Dose finding: physiological retinal vascular development in pups; settings: i.p. injection of pups, Nin every third day, not before P5
# VEGFR2 [2] = target: T1, VEGFR2 (Homo sapiens, UniProt P35968); experiment: VEGF-induced VEGFR2 activation in primary ECs; type: cell-based
# T1 construct: endogenous in cells; host or cells: primary ECs
# T1 sequence (P35968 20-1356, species assumed): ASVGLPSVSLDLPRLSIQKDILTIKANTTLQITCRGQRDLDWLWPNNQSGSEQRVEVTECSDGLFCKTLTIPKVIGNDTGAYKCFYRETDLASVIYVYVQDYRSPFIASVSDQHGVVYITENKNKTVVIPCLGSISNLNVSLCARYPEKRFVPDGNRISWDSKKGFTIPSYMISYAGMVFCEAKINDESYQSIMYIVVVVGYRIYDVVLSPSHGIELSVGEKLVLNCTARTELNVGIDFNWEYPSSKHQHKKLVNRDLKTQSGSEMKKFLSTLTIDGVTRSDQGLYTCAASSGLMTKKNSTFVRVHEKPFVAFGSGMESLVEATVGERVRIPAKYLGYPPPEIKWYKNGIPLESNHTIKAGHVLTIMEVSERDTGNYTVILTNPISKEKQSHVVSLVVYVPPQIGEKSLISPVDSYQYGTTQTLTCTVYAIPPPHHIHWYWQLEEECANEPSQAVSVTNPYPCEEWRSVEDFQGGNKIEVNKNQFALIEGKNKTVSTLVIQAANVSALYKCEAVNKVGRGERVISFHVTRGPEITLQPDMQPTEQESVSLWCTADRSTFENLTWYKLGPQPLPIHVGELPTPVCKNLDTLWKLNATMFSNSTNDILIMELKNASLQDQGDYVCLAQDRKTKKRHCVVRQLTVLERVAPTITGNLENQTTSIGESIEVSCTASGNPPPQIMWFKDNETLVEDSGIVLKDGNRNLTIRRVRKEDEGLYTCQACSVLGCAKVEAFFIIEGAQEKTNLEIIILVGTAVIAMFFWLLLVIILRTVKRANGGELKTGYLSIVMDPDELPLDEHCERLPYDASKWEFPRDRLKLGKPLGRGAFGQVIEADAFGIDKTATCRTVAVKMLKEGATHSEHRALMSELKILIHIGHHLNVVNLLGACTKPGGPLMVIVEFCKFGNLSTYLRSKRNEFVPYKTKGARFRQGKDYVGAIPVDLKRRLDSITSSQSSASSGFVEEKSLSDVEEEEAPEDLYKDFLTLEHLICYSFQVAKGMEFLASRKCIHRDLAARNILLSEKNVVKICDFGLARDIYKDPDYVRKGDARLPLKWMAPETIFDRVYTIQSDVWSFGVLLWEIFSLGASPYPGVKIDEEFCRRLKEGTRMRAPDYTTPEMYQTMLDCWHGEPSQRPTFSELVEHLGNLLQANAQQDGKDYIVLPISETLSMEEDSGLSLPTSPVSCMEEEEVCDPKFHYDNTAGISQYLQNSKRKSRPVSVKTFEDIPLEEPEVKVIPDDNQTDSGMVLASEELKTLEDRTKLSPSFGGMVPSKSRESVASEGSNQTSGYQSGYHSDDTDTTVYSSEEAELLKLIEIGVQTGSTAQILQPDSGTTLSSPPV
# tBMP9/10ib mice [3] = experiment: Prevention of retinal vascular pathology in tBMP9/10ib HHT mice (treatment P3-P5, analysis at P6)
# Method: Mouse pups were administered preventively and daily with Siro from P3 to P5 (0.5 mg/kg, i.p.) and with Nin at P5 (0.3 mg/kg, i.p.). Mice were then analyzed at P6, a time point at which retinal vessel dilation, hypervascularization, and AVMs can readily be observed and quantified in this model.
# VEGFR2 [4] = target: T2, VEGFR2 (Mus musculus, UniProt P35918); experiment: phospho-VEGFR2 in liver ECs and retina of tBMP9/10ib mice; type: in vivo
# T2 construct: protein homogenates of liver ECs isolated from tBMP9/10ib mice; from tissue; host or cells: liver endothelial cells and retina of tBMP9/10ib mice
# T2 sequence (P35918 20-1345): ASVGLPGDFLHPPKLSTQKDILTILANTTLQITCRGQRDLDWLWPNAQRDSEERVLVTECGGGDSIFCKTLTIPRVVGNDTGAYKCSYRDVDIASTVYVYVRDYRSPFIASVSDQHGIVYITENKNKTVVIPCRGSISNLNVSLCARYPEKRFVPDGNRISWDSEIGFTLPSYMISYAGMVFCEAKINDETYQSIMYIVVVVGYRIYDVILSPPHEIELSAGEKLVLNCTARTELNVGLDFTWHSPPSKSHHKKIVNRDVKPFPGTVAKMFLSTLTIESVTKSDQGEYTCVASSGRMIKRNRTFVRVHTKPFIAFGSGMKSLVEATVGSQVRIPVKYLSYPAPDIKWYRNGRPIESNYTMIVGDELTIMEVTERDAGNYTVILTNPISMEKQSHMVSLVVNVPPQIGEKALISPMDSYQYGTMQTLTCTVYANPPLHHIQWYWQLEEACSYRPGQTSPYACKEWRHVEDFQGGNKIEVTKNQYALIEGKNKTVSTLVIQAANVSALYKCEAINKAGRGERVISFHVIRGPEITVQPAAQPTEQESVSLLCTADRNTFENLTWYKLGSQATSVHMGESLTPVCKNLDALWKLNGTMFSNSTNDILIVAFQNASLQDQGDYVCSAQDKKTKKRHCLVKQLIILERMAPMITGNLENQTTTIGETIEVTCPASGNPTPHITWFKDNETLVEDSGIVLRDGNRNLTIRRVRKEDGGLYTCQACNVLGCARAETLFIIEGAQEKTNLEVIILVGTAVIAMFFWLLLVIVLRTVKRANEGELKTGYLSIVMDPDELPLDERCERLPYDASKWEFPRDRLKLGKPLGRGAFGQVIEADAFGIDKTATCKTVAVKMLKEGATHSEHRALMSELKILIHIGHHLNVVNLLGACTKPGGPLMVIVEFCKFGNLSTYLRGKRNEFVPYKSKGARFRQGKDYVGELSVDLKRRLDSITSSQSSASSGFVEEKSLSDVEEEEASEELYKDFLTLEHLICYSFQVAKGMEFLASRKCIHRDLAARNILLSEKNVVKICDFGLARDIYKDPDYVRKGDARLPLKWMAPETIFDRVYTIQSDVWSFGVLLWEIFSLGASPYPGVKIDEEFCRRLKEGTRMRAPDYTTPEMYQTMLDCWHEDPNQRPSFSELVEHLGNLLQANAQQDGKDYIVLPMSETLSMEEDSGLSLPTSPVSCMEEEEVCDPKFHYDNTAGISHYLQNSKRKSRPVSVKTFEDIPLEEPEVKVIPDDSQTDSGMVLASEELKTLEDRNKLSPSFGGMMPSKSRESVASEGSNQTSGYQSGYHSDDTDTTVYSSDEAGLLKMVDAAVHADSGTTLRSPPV
# [5] = mouse, in vivo
# tBMP9/10ib mice [6] = settings: 0.5 mg/kg, P3-P5, i.p.; Ruiz et al., 2017; cited from earlier work
# [7] = tBMP9/10ib retinas at P6, Siro 0.5 mg/kg i.p. P3-P5, Nin 0.3 mg/kg i.p. at P5
average serum concentration [5],Structure (SMILES),"average serum concentration ([1]; injected P6 pups, Siro 0.5 mg/kg i.p., Nin 0.3 mg/kg i.p.)","average serum concentration ([1]; pup serum at P9, three additional days of treatment)",highest dose that did not affect normal vascular development (neonatal retina),VEGF-induced VEGFR2 activation (VEGFR2 [2]),"vascular pathology (tBMP9/10ib mice [3]; HHT mice, sirolimus 0.5 mg/kg/day, nintedanib 0.3 mg/kg/day, alone or combined)",AVM diameter (tBMP9/10ib mice [3]; [7]),increase in density of the vascular plexus (tBMP9/10ib mice [3]; [7]),vein dilation (tBMP9/10ib mice [3]; [7]),"AVM number (tBMP9/10ib mice [3]; tBMP9/10ib retinas at P6, Siro 0.5 mg/kg i.p. P3-P5, Nin 0.3 mg/kg i.p. at P5, mean)",elevation of activated phospho-VEGFR2 (p-VEGFR2) (VEGFR2 [4]),increase in density of the vascular plexus (tBMP9/10ib mice [6]),vein dilation (tBMP9/10ib mice [6])
–,"COC(=O)c1ccc2c(c1)NC(=O)/C2=C(\Nc1ccc(N(C)C(=O)CN2CCN(C)CC2)cc1)c1ccccc1 [Nin, nintedanib]",5.3 nM,24.7 nM,0.3 mg/kg,fully inhibited,moderate-to-negligible effect,failed to reduce,failed to reduce,failed to reduce,failed to reduce,significantly inhibited,–,–
22.6 nM,"CO[C@H]1C[C@@H]2CC[C@@H](C)[C@@](O)(O2)C(=O)C(=O)N2CCCC[C@H]2C(=O)O[C@H]([C@H](C)C[C@@H]2CC[C@@H](O)[C@H](OC)C2)CC(=O)[C@H](C)/C=C(\C)[C@@H](O)[C@@H](OC)C(=O)[C@H](C)C[C@H](C)/C=C/C=C/C=C/1C [Siro, sirolimus]",–,–,0.5 mg/kg,–,–,–,–,–,–,–,–,–
–,"C=CC[C@@H]1/C=C(\C)C[C@H](C)C[C@H](OC)[C@H]2O[C@@](O)(C(=O)C(=O)N3CCCC[C@H]3C(=O)O[C@H](/C(C)=C/[C@@H]3CC[C@@H](O)[C@H](OC)C3)[C@H](C)[C@@H](O)CC1=O)[C@H](C)C[C@@H]2OC [Tac, tacrolimus]",–,–,–,–,–,–,–,–,–,–,prevented,prevented
